The results in this text go back to patent US20260008746A1, “CATIONIC LIPID COMPOUND WITH HIGH EFFICIENCY, LOW TOXICITY AND STABLE EXPRESSION, AND COMPOSITION COMPRISNG SAME” (HANGZHOU TIANLONG PHARMACEUTICAL CO., LTD, priority 2023, published 2026).

The subject of series [1] is 293T cells. The series is described as follows: Cell survival rate determination (CCK-8). Particulars: for Cell survival rate (%): LNP formulation containing 1.5 μg Fluc-mRNA, 24 hours, CCK-8, absorbance at 450 nm; for cell survival rate lower than that of YK-101: cell survival rate of YK-101 minus that of named substance; for cell survival rate lower than that of YK-107: cell survival rate of YK-107 minus that of named substance; for cell survival rate lower than that of YK-108: cell survival rate of YK-108 minus that of named substance. Type of series: cell-based. The procedure: (§1) Cell recovery and passage: 293T cells were recovered, cultured in a culture dish, and passaged to the required number of cells.
(§2) Seeding plate: The cells in the culture dish were digested and counted. Cells were spread in a 96-well plate at 10,000 cells per well and in a 12-well plate at 150,000 cells per well. Cells were cultured overnight until the cells adhered to the wall.
An LNP formulation containing 1.5 μg of Fluc-mRNA (the cater component of the LNP formulation were cationic lipid, neutral lipid, structured lipid and polymer-conjugated lipid with a molar ratio of 49: 10: 39.5: 1.5, wherein the cationic lipid was listed in Table 1) and the formulation of Lipofectamine 3000 were added to the cell culture medium of a 96-well plate, and further cultivated for 24 hours. 10 μL of CCK-8 solution was then added to each well, and the culture plate was incubated in an incubator for 1 hour. The absorbance at 450 nm was measured by a microplate reader.

The subject of series [2] is BALB/C mice. The series is described as follows: In vivo imaging of Fluc-mRNA expression in mice delivered by LNP formulations. Particulars: for average radiation intensity, 6 h / average radiation intensity, 24 h / average radiation intensity, 48 h / average radiation intensity, 7 d: LNP containing 10 pg Fluc-mRNA, intramuscular, female BALB/C mice. The procedure: The LNP formulation containing […] Fluc-mRNA was injected intramuscularly into female BALB/C mice aged 4-6 weeks old and weighed 17-19 g, and the mice were intraperitoneally injected with fluorescent imaging substrate at specific time points after administration (6h, 24 h, 48h and 7d), where the mice were allowed to move freely for 5 minutes, and then the average radiation intensity (corresponding to fluorescence expression intensity) of the protein expression of the mRNA carried by the LNP in the mice was detected by the IVIS Spectrum small animal in vivo imaging device. The test results are shown in Tables 11 to 14 and FIGS. 12 to 14.

The test system of series [3] is 293T cells. The series is described as follows: Fluorescent detection of Fluc-mRNA (cell transfection efficiency of LNP formulations). Type of series: cell-based. Conditions: for Relative light unit (RLU): LNP formulation containing 0.3 μg Fluc-mRNA, 96-well plate, 24 hours; for Multiples (YK-101): RLU of YK-101 / RLU of named substance; for Multiples (YK-107): RLU of YK-107 / RLU of named substance; for Multiples (YK-108): RLU of YK-108 / RLU of named substance; for fluorescence absorption value, times that of HHMA: RLU of named substance / RLU of HHMA; for fluorescence absorption value, times that of Lipofectamine 3000: RLU of named substance / RLU of Lipofectamine 3000; for Ratio relative to SM-102: RLU of named substance / RLU of SM-102; for Fluc-mRNA expression signal intensity, times that of compound 21: RLU of named substance / RLU of compound 21; for fluorescence absorption value, times that of compound 23: RLU of named substance / RLU of compound 23. The procedure:
as §1, §2
Cell recovery and passage: the method was the same as in Example 3.
Seeding plate: the method was the same as in Example 3.
An LNP formulation containing 0.3 μg of Fluc-mRNA (the carrier components of the LNP formulation were cationic lipid, neutral lipid, structured lipid and polymer-conjugated lipid with a molar ratio of 49:10:39.5:1.5, wherein the cationic lipid was listed in Table 1) was added to the cell culture medium of a 96-well plate, and further incubated for 24 hours. The corresponding reagent was added according to the instructions of the Gaussia Luciferase Assay Kit, and the fluorescence expression intensity of each well was detected by an IVIS fluorescence detection system. This test verified the transfection efficiencies of LNP formulations in cells, see Tables 3-6 for specific test results.

Take `CCCCCCCCCCOC(=O)CCCN(CCCCCC(=O)OCCC(CCCCCC)CCCCCC)C1CCCC1O` (stereo not drawn) [YK-120, 3-hexylnonyl 6-(4-(decyloxy)-4-oxobutyl)((2-hydroxycyclopentyl)amino)hexanoate]: in series [1], the “Cell survival rate (%)” value was found to be 73.43%, the “cell survival rate lower than that of YK-101” value is listed as 16.69%, the “cell survival rate lower than that of YK-107” value is 17.02% and the “cell survival rate lower than that of YK-108” value worked out at 16.43%. Further, in series [2] (6 h), the “average radiation intensity of YK-101, times that of named substance” value is recorded as 2.7 times; the “average radiation intensity of YK-107, times that of named substance” value was 2.9 times; the “average radiation intensity of YK-108, times that of named substance” value came out at 3.6 times; the “average radiation intensity, 6 h” value is 559000. Besides, in series [2] (24 h), the “average radiation intensity of YK-101, times that of named substance” value is 11.1 times; the “average radiation intensity of YK-107, times that of named substance” value came out at 13.7 times; the “average radiation intensity of YK-108, times that of named substance” value was found to be 14.8 times; the “average radiation intensity, 24 h” value was 94779. In addition, in series [2] (48 h), the “average radiation intensity of YK-101, times that of named substance” value is given as 8.9 times; the “average radiation intensity of YK-107, times that of named substance” value is on record as 10.9 times; the “average radiation intensity of YK-108, times that of named substance” value was 11.1 times; the “average radiation intensity, 48 h” value is reported as 20832. In addition, in series [2] (7 d), the “average radiation intensity of YK-101, times that of named substance” value stood at 2.4 times; the “average radiation intensity of YK-107, times that of named substance” value is recorded as 2.6 times; the “average radiation intensity of YK-108, times that of named substance” value was 2.8 times; the “average radiation intensity, 7 d” value turned out to be 5052. In addition, in series [3], the “Relative light unit (RLU)” value is 1403572 RLU, the “Multiples (YK-101)” value worked out at 14.49, the “Multiples (YK-107)” value worked out at 15.93 and the “Multiples (YK-108)” value amounted to 17.57. In series [3], the “fluorescence absorption value, times that of HHMA” value was 0.69 times; the “fluorescence absorption value, times that of Lipofectamine 3000” value is on record as 1.31 times; the “Ratio relative to SM-102” value amounted to 0.91; the “Fluc-mRNA expression signal intensity, times that of compound 21” value came to 1.01 times. Also, the “fluorescence absorption value, times that of compound 23” value in series [3] stood at 1.09 times.
`CCCCCCCCCCOC(=O)CCCN(CCCO)CCCCCC(=O)OCCC(CCCCCC)CCCCCC` [YK-102, 3-hexylnonyl-6-(4-(decyloxy)-4-oxobutyl)((3-hydroxypropyl)amino)hexanoate]: in series [1], the “Cell survival rate (%)” value came to 51.82%, the “cell survival rate lower than that of YK-101” value was 38.30%, the “cell survival rate lower than that of YK-107” value turned out to be 38.63% and the “cell survival rate lower than that of YK-108” value is 38.04%. Moreover, in series [2] (6 h), the “average radiation intensity of YK-101, times that of named substance” value came to 2.3 times; the “average radiation intensity of YK-107, times that of named substance” value turned out to be 2.5 times; the “average radiation intensity of YK-108, times that of named substance” value came to 3.1 times; the “average radiation intensity, 6 h” value is given as 652680. In addition, in series [2] (24 h), the “average radiation intensity of YK-101, times that of named substance” value turned out to be 10.5 times; the “average radiation intensity of YK-107, times that of named substance” value was 13.0 times; the “average radiation intensity of YK-108, times that of named substance” value is 14.0 times; the “average radiation intensity, 24 h” value is 100422. Moreover, in series [2] (48 h), the “average radiation intensity of YK-101, times that of named substance” value worked out at 6.1 times; the “average radiation intensity of YK-107, times that of named substance” value is listed as 7.4 times; the “average radiation intensity of YK-108, times that of named substance” value came to 7.6 times; the “average radiation intensity, 48 h” value was 30507. Also, in series [2] (7 d), the “average radiation intensity of YK-101, times that of named substance” value stood at 1.9 times; the “average radiation intensity of YK-107, times that of named substance” value is recorded as 2.1 times; the “average radiation intensity of YK-108, times that of named substance” value is listed as 2.2 times; the “average radiation intensity, 7 d” value worked out at 6477. Besides, in series [3], the “Relative light unit (RLU)” value is 1464032 RLU, the “Multiples (YK-101)” value is 13.89, the “Multiples (YK-108)” value worked out at 16.84 and the “Ratio relative to SM-102” value was determined as 0.95.
On to `CCCCCCCCCCOC(=O)CCCN(CCO)CCCCCC(=O)OCCC(CCCCCC)CCCCCC` [YK-101, 3-hexylnonyl-6-(4-(decyloxy)-4-oxobutyl)((2-hydroxyethyl)amino)hexanoate], for which, in series [1], the “Cell survival rate (%)” value is reported as 90.12%. Also, the “average radiation intensity, 6 h” value in series [2] (6 h) stood at 1496240. Besides, in series [2] (24 h), the “average radiation intensity, 24 h” value came out at 1056210. Further, the “average radiation intensity, 48 h” value in series [2] (48 h) came to 185905. The “average radiation intensity, 7 d” value in series [2] (7 d) is listed as 12165. Also, in series [3], the “Relative light unit (RLU)” value was found to be 20335193 RLU, the “Multiples (YK-101)” value is 1.00, the “Multiples (YK-107)” value is reported as 1.10 and the “Multiples (YK-108)” value came to 1.21. The “Ratio relative to SM-102” value in series [3] came to 13.25.
On to `CCCCCCCCC(CCCCCCCC)COC(=O)CCCCCN(CCO)CCCCCC(=O)OCCCSSCCCCC` [YK-111], for which, in series [1], the “Cell survival rate (%)” value was found to be 75.76%, the “cell survival rate lower than that of YK-101” value was found to be 14.36%, the “cell survival rate lower than that of YK-107” value is 14.69% and the “cell survival rate lower than that of YK-108” value is 14.10%. Also, in series [2] (6 h), the “average radiation intensity of YK-101, times that of named substance” value is 2.3 times; the “average radiation intensity of YK-107, times that of named substance” value is 2.4 times; the “average radiation intensity of YK-108, times that of named substance” value is on record as 3.0 times; the “average radiation intensity, 6 h” value is recorded as 661800. Moreover, in series [2] (24 h), the “average radiation intensity of YK-101, times that of named substance” value amounted to 10.6 times; the “average radiation intensity of YK-107, times that of named substance” value is recorded as 13.1 times; the “average radiation intensity of YK-108, times that of named substance” value turned out to be 14.1 times; the “average radiation intensity, 24 h” value is on record as 99777. In addition, in series [2] (48 h), the “average radiation intensity of YK-101, times that of named substance” value is given as 9.2 times; the “average radiation intensity of YK-107, times that of named substance” value stood at 11.1 times; the “average radiation intensity of YK-108, times that of named substance” value is listed as 11.3 times; the “average radiation intensity, 48 h” value is 20312. In series [2] (7 d), the “average radiation intensity of YK-101, times that of named substance” value is 2.4 times; the “average radiation intensity of YK-107, times that of named substance” value stood at 2.6 times; the “average radiation intensity of YK-108, times that of named substance” value is reported as 2.8 times; the “average radiation intensity, 7 d” value was found to be 5050. In series [3], the “cell transfection efficiency, times that of YK-110” value is on record as 5 times; the “Relative light unit (RLU)” value is listed as 1328301 RLU; the “Multiples (YK-101)” value was found to be 15.31; the “Multiples (YK-107)” value amounted to 16.83. Also, in series [3], the “Multiples (YK-108)” value worked out at 18.57; the “fluorescence absorption value, times that of HHMA” value is on record as 0.65 times; the “fluorescence absorption value, times that of Lipofectamine 3000” value is reported as 1.24 times; the “Ratio relative to SM-102” value turned out to be 0.87. In addition, in series [3], the “Fluc-mRNA expression signal intensity, times that of compound 21” value is 0.96 times and the “fluorescence absorption value, times that of compound 23” value was 1.03 times.
